Results published in ChEMBL document CHEMBL1201862, “PubChem BioAssay data set” (2004).
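Protocol summary: plate cells (96-well), add compound at 5 concentrations, incubate 48 h, interpolate endpoints linearly. GI50 is the concentration that inhibits growth by half.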 Activity calls are given as the source filed them. Cut-off read from the data, not from the text of the source: active = GI50 up to about 1.1 µM and inactive = higher.

Key:
Assay in all cases: NCI anticancer screen, dose series, 48 h
786-0 = tested on: 786-0
COLO 205 = tested on: COLO 205
HCT-15 = tested on: HCT-15
HOP-62 = tested on: HOP-62
IGROV-1 = tested on: IGROV-1
KM12 = tested on: KM12
LOX IMVI = tested on: LOX IMVI
Malme-3M = tested on: Malme-3M
NCI-H23 = tested on: NCI-H23
OVCAR-5 = tested on: OVCAR-5
SK-MEL-28 = tested on: SK-MEL-28
SK-MEL-5 = tested on: SK-MEL-5
SN12C = tested on: SN12C
SNB-75 = tested on: SNB-75
UACC-257 = tested on: UACC-257
NCI-H460 = tested on: NCI-H460
SR = tested on: SR

Row | Compound | GI50 (786-0) | GI50 (COLO 205) | GI50 (HCT-15) [µM] | GI50 (HOP-62) | GI50 (IGROV-1) | GI50 (KM12) | GI50 (LOX IMVI) | GI50 (Malme-3M) | GI50 (NCI-H23) | GI50 (OVCAR-5) | GI50 (SK-MEL-28) | GI50 (SK-MEL-5) | GI50 (SN12C) | GI50 (SNB-75) | GI50 (UACC-257) | GI50 (NCI-H460) | GI50 (SR)
1 | O=C(N/C(=C\c1ccc([N+](=O)[O-])cc1)c1nc2ccccc2s1)c1ccccc1 | 18 µM (inactive) | 58.3 µM (inactive) | 27.2 | 35.6 µM (inactive) | 23 µM (inactive) | 22.5 µM (inactive) | 20 µM (inactive) | > 100 µM (inactive) | 19.7 µM (inactive) | 54.7 µM (inactive) | 39.5 µM (inactive) | 25.7 µM (inactive) | 20.9 µM (inactive) | 26.7 µM (inactive) | 28.1 µM (inactive) |  | 
2 | O=c1ccn(/C=C/C(O)C(O)CO)c(=O)[nH]1 (centres undefined) | > 100 µM (inactive) | > 100 µM (inactive) | > 100 | > 100 µM (inactive) | > 100 µM (inactive) | 21.7 µM (inactive) | > 100 µM (inactive) | > 100 µM (inactive) | > 100 µM (inactive) | > 100 µM (inactive) | > 100 µM (inactive) | > 100 µM (inactive) | > 100 µM (inactive) | > 100 µM (inactive) | > 100 µM (inactive) |  | 
3 | O=C(CC1C(=O)c2ccccc2C1=C1C(=O)c2ccccc2C1=O)c1ccccc1 (centres undefined) | 50.6 µM (inactive) | 37.2 µM (inactive) | 64.4 | > 100 µM (inactive) | > 100 µM (inactive) | > 100 µM (inactive) | > 100 µM (inactive) | > 100 µM (inactive) | > 100 µM (inactive) | > 100 µM (inactive) | > 100 µM (inactive) | > 100 µM (inactive) | > 100 µM (inactive) | > 100 µM (inactive) | > 100 µM (inactive) | > 100 µM (inactive) | 
4 | CCCCC(C(=O)C(=O)Nc1ccc(C)cc1C)C(=O)C(C)C (centres undefined) | > 100 µM (inactive) |  | > 100 | > 100 µM (inactive) | > 100 µM (inactive) | > 100 µM (inactive) | > 100 µM (inactive) | > 100 µM (inactive) | > 100 µM (inactive) | > 100 µM (inactive) | > 100 µM (inactive) | > 100 µM (inactive) | > 100 µM (inactive) | > 100 µM (inactive) | > 100 µM (inactive) | > 100 µM (inactive) | 
5 | S=C(N/N=C/c1ccccc1)NC1CC(c2ccccc2)Oc2ccccc21 (centres undefined) | 67 µM (inactive) | > 100 µM (inactive) |  |  | > 100 µM (inactive) | > 100 µM (inactive) | > 100 µM (inactive) | 68.1 µM (inactive) | 25.8 µM (inactive) | > 100 µM (inactive) | 70 µM (inactive) | 11.1 µM (inactive) | > 100 µM (inactive) | 7.16 µM (inactive) |  | 23.1 µM (inactive) | > 100 µM (inactive)
6 | Cc1ccc(Cc2c(=O)[nH]nc3ccccc23)cc1 | > 100 µM (inactive) | > 100 µM (inactive) | > 100 | > 100 µM (inactive) | > 100 µM (inactive) | > 100 µM (inactive) | > 100 µM (inactive) | > 100 µM (inactive) | > 100 µM (inactive) | > 100 µM (inactive) | > 100 µM (inactive) | > 100 µM (inactive) | > 100 µM (inactive) | 79.8 µM (inactive) | > 100 µM (inactive) | > 100 µM (inactive) | 
7 | C/C(CN1C(=O)c2ccccc2C1=O)=N\NS(=O)(=O)c1ccccc1 | > 100 µM (inactive) | > 100 µM (inactive) | > 100 | > 100 µM (inactive) | > 100 µM (inactive) | > 100 µM (inactive) | > 100 µM (inactive) | > 100 µM (inactive) | > 100 µM (inactive) | > 100 µM (inactive) | > 100 µM (inactive) | > 100 µM (inactive) | > 100 µM (inactive) | > 100 µM (inactive) | > 100 µM (inactive) | > 100 µM (inactive) | 
8 | COc1cc2cc3c4c(cc(OC)c(OC)c4c2cc1OC)CCN3C(=O)CCCC(=O)O | > 100 µM (inactive) | > 100 µM (inactive) |  | > 100 µM (inactive) | > 100 µM (inactive) | > 100 µM (inactive) | > 100 µM (inactive) | > 100 µM (inactive) | > 100 µM (inactive) | > 100 µM (inactive) | > 100 µM (inactive) | > 100 µM (inactive) | > 100 µM (inactive) |  | > 100 µM (inactive) | > 100 µM (inactive) | > 100 µM (inactive)
9 | Cc1nn(-c2ccccc2)c(S)c1C(=O)c1ccccc1 |  | 89.3 µM (inactive) | 34.6 |  | 51.2 µM (inactive) | 33 µM (inactive) | 53.6 µM (inactive) | > 100 µM (inactive) | 43.5 µM (inactive) | 62.2 µM (inactive) | 33.5 µM (inactive) | 28.8 µM (inactive) | 21.2 µM (inactive) | 42.8 µM (inactive) | 76.2 µM (inactive) |  | 
10 | O=C(Nc1ccc(Cl)cc1)C1C(=O)C(=O)N(c2ccc(Cl)cc2)C1=O (centres undefined) | > 100 µM (inactive) | > 100 µM (inactive) | 35.9 |  | > 100 µM (inactive) | > 100 µM (inactive) | > 100 µM (inactive) | > 100 µM (inactive) | > 100 µM (inactive) | > 100 µM (inactive) | > 100 µM (inactive) | > 100 µM (inactive) | 81.1 µM (inactive) | > 100 µM (inactive) |  | > 100 µM (inactive) | > 100 µM (inactive)
11 | CC(=O)NC(CCCNC(=O)N(CCCl)N=O)C(=O)NCc1ccccc1 (centres undefined) | 6.87 µM (inactive) | > 100 µM (inactive) | > 100 | 40 µM (inactive) | 59.7 µM (inactive) | > 100 µM (inactive) |  | > 100 µM (inactive) | > 100 µM (inactive) |  | > 100 µM (inactive) |  | 91.4 µM (inactive) | 9.71 µM (inactive) | > 100 µM (inactive) | 2.32 µM (inactive) | 35.6 µM (inactive)
12 | CCC1CC(C)=CCN1S(=O)(=O)c1ccc(C)cc1 (centres undefined) | 33.5 µM (inactive) | 16.5 µM (inactive) | 6.52 | 21.3 µM (inactive) |  | 23.4 µM (inactive) | 15.9 µM (inactive) | 17.3 µM (inactive) |  | 28 µM (inactive) |  | 13.9 µM (inactive) | 9.57 µM (inactive) | 13.9 µM (inactive) | 25.9 µM (inactive) | 21.1 µM (inactive) | 5.66 µM (inactive)
13 | C/C=C1\CCC2c3[nH]c4ccccc4c3CCN2C1 (centres undefined) | 70.1 µM (inactive) |  |  | > 100 µM (inactive) | > 100 µM (inactive) | > 100 µM (inactive) |  | 0.174 µM (active) | 77.4 µM (inactive) |  | > 100 µM (inactive) | 51.2 µM (inactive) | > 100 µM (inactive) | 61.7 µM (inactive) |  | > 100 µM (inactive) | 55.5 µM (inactive)
14 | CCOC(=O)/C(=C/c1ccccc1)N(CC)CC | > 100 µM (inactive) | > 100 µM (inactive) | > 100 | > 100 µM (inactive) | > 100 µM (inactive) | > 100 µM (inactive) | 94.4 µM (inactive) | > 100 µM (inactive) | > 100 µM (inactive) | > 100 µM (inactive) | > 100 µM (inactive) | > 100 µM (inactive) | > 100 µM (inactive) |  | > 100 µM (inactive) | > 100 µM (inactive) | > 100 µM (inactive)
15 | Cc1ccccc1C1SCc2nc3ccccc3n21 (centres undefined) | > 100 µM (inactive) | > 100 µM (inactive) |  |  | > 100 µM (inactive) | > 100 µM (inactive) |  | 44.9 µM (inactive) | 12.8 µM (inactive) | 3.38 µM (inactive) | 23.6 µM (inactive) | 5.19 µM (inactive) | > 100 µM (inactive) | > 100 µM (inactive) | 4.26 µM (inactive) |  | 
16 | CC12Oc3ccc4ccccc4c3CC1Cc1c(ccc3ccccc13)O2 (centres undefined) | 40.2 µM (inactive) | > 100 µM (inactive) |  | 53 µM (inactive) |  | > 100 µM (inactive) | 56.2 µM (inactive) | 3.44 µM (inactive) | > 100 µM (inactive) | > 100 µM (inactive) | > 100 µM (inactive) |  |  | 7.08 µM (inactive) | 50.4 µM (inactive) | 82.4 µM (inactive) | 
17 | Cc1cc2c(C)n(Cc3ccc(Cl)cc3Cl)nc2c(C(=O)O)c1C | > 100 µM (inactive) | > 100 µM (inactive) | 91.2 | > 100 µM (inactive) | > 100 µM (inactive) |  | > 100 µM (inactive) | > 100 µM (inactive) | > 100 µM (inactive) | > 100 µM (inactive) | > 100 µM (inactive) |  | 63.4 µM (inactive) | > 100 µM (inactive) | > 100 µM (inactive) | 96.4 µM (inactive) | 
18 | O=C1CCC2(c3ccc(F)cc3)Nc3ccccc3N12 (centres undefined) | > 100 µM (inactive) | > 100 µM (inactive) | > 100 | > 100 µM (inactive) | > 100 µM (inactive) | > 100 µM (inactive) | > 100 µM (inactive) | > 100 µM (inactive) | > 100 µM (inactive) | > 100 µM (inactive) | > 100 µM (inactive) | > 100 µM (inactive) | > 100 µM (inactive) | 63.7 µM (inactive) | > 100 µM (inactive) | > 100 µM (inactive) | 
19 | COc1cc(CC2c3cc(OC)c(OC)cc3CCN2C)c(C(=O)O)cc1OC (centres undefined) | > 100 µM (inactive) | > 100 µM (inactive) |  | > 100 µM (inactive) |  | > 100 µM (inactive) | > 100 µM (inactive) | > 100 µM (inactive) | > 100 µM (inactive) | > 100 µM (inactive) | > 100 µM (inactive) | > 100 µM (inactive) | > 100 µM (inactive) | > 100 µM (inactive) | > 100 µM (inactive) |  | > 100 µM (inactive)
